Experimental data taken from patent US20090286878A1, “POLYOL DERIVED ANTI-MICROBIAL AGENTS AND COMPOSITIONS” (priority 2008, published 2009).

How the values were obtained:
Assay in all cases: Fungicidal activity, modified EN12175 test
Assay type in all cases: cell-based
Aspergillus niger = details: 1% concentration; for A. niger log reduction 30 min: 30 min contact; for A. niger log reduction 30 min / A. niger log reduction 1 h / A. niger log reduction 24 h: vs water control; for A. niger log reduction 1 h: 1 h contact; for A. niger log reduction 24 h: 24 h contact; for A. niger cfu/mL (residual spore cell count): inoculum 2.60E+08 cfu/mL, room temperature
Protocol: (§1) Fungicidal activity is tested according to trivial modifications of the standard EN12175 test method. […] Penicillium funiculosum, Aspergillus niger and Aureobasidium pullulans are tested as important mold strains. The resulting cell count reduction is compared to a water control. […]

Aureobasidium pullulans = details: 1% concentration; for A. pull. log reduction 30 min: 30 min contact; for A. pull. log reduction 30 min / A. pull. log reduction 1 h / A. pull. log reduction 24 h: vs water control; for A. pull. log reduction 1 h: 1 h contact; for A. pull. log reduction 24 h: 24 h contact; for A. pull. cfu/mL (residual spore cell count): inoculum 4.0E+06 cfu/mL, room temperature
Protocol: as §1

Penicillium funiculosum = details: 1% concentration; for P. funic. log reduction 30 min: 30 min contact; for P. funic. log reduction 30 min / P. funic. log reduction 1 h / P. funic. log reduction 24 h: vs water control; for P. funic. log reduction 1 h: 1 h contact; for P. funic. log reduction 24 h: 24 h contact; for P. funic. cfu/mL (residual spore cell count): inoculum 3.60E+07 cfu/mL, room temperature
Protocol: as §1

Row | Compound | A. niger log reduction 30 min (Aspergillus niger) [log] | A. niger log reduction 1 h (Aspergillus niger) [log] | A. niger log reduction 24 h (Aspergillus niger) [log] | A. niger cfu/mL (residual spore cell count) (Aspergillus niger) [cfu/mL] | A. pull. log reduction 30 min (Aureobasidium pullulans) [log] | A. pull. log reduction 1 h (Aureobasidium pullulans) [log] | A. pull. log reduction 24 h (Aureobasidium pullulans) [log] | A. pull. cfu/mL (residual spore cell count) (Aureobasidium pullulans) [cfu/mL] | P. funic. log reduction 30 min (Penicillium funiculosum) [log] | P. funic. log reduction 1 h (Penicillium funiculosum) [log] | P. funic. log reduction 24 h (Penicillium funiculosum) [log] | P. funic. cfu/mL (residual spore cell count) (Penicillium funiculosum) [cfu/mL]
1 | CCCCCCCCCCCCNCCCCCC(=O)OCC(CC)(COC(=O)CCCCCNCCCCCCCCCCCC)COC(=O)CCCCCNCCCCCCCCCCCC [Ex 16] | >4 | >4 | >4 | <10 | >4 | >4 | >4 | <10 | >4 | >4 | >4 | <10
2 | CCCCCCCCNCCC(=O)OCC(CC)(COC(=O)CCNCCCCCCCC)COC(=O)CNCCCCCCCC [Ex 18] | >4 | >4 | >4 | <10 | >4 | >4 | >4 | <10 | >4 | >4 | >4 | <10
